Experimental data: ChEMBL document CHEMBL4390642, “The in vivo antinociceptive and μ-opioid receptor activating effects of the combination of N-phenyl-2',4'-dimethyl-4,5'-bi-1,3-thiazol-2-amines and naloxone” (Eur J Med Chem, 2019)
Calls of active or inactive are those of the source. The calls are words filed in the database; no cut-off is given here.

How the values were obtained:
[1] = target: T1, Mu-type opioid receptor (Homo sapiens, UniProt P35372); test: Agonist activity at human mu opioid receptor expressed in CHOK1 cells coexpressing Galpha15 assessed as intracellular calcium AUC in presence of mu opioid receptor antagonist naloxone and incubated for 1 hr measured for 90 secs at 1.5 sec interval by FLIPR assay to morphine; type: functional, cell-based; design: concentration or dose not given beside the values
T1 sequence (P35372 whole entry): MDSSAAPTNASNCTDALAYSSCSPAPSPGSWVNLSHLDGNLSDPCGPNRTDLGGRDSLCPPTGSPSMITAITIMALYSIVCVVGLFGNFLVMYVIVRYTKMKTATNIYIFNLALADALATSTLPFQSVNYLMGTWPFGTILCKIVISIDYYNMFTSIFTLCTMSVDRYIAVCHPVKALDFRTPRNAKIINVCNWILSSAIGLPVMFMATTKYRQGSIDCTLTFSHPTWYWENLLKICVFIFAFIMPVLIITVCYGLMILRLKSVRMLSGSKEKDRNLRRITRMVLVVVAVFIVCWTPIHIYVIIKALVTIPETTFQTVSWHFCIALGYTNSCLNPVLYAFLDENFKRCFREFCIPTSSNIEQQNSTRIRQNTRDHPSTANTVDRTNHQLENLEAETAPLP

[2] = target: T1, Mu-type opioid receptor; test: Agonist activity at human mu opioid receptor expressed in CHOK1 cells coexpressing Galpha15 assessed as increase in intracellular calcium flux in presence of mu opioid receptor antagonist naloxone and incubated for 1 hr measured for 90 secs at 1.5 sec interval by FLIPR assay; type: functional, cell-based
[3] = tested on: Mus musculus; test: Antinociceptive activity in C57BL/6 mouse model of thermal-induced nociception at 100 mg/kg, sc measured up to 30 to 180 mins by tail flick test; type: functional, organism-based
[4] = Toxicity in C57BL/6 mouse at 100 mg/kg, iv measured up to 30 to 180 mins during tail-flick test; type: organism-based; conditions: in vivo
[5] = tested on: Mus musculus; test: Antinociceptive activity in C57BL/6 mouse model of thermal-induced nociception at 100 mg/kg measured at 30 mins post injection by tail flick test; type: functional, organism-based
[6] = tested on: Mus musculus; test: Antinociceptive activity in C57BL/6 mouse model of thermal-induced nociception assessed as inhibition of tail-flick response at 100 mg/kg, iv measured at 30 mins in presence of opioid receptor antagonist naloxone at 100 ng/kg, sc by tail flick test; type: functional, organism-based
[7] = tested on: Mus musculus; test: Antinociceptive activity in C57BL/6 mouse model of thermal-induced nociception assessed as inhibition of tail-flick response at 100 mg/kg, iv measured up to 30 to 180 mins in presence of opioid receptor antagonist naloxone at 100 ng/kg, sc by tail flick test; type: functional, organism-based
[8] = tested on: Mus musculus; test: Antinociceptive activity in C57BL/6 mouse model of thermal-induced nociception assessed as inhibition of tail-flick response by measuring AUC of tail flick test at 25 mg/kg, iv measured up to 30 to 180 mins in presence of 10 mg/kg, sc opioid receptor antagonist naloxone by tail flick test; type: functional, organism-based
[9] = tested on: Mus musculus; test: (§1) Antinociceptive activity in C57BL/6 mouse model of thermal-induced nociception assessed as inhibition of tail-flick response by measuring AUC of tail flick test at 25 to 100 mg/kg, iv measured up to 30 to 180 mins in presence of 10 mg/kg, sc opioid receptor antagonist naloxone by tail flick test; type: functional, organism-based
[10] = tested on: Mus musculus; test: as §1, with “assessed as naloxone ED50 for inhibition of” for “assessed as inhibition of”, “test at 100 mg/kg,” for “test at 25 to 100 mg/kg,”; type: functional
[11] = tested on: Mus musculus; test: Antinociceptive activity in C57BL/6 mouse model of thermal-induced nociception assessed as inhibition of tail-flick response by measuring AUC of tail flick test at 50 mg/kg, iv measured up to 30 to 180 mins in presence of 10 mg/kg, sc opioid receptor antagonist naloxone by tail flick test; type: functional, organism-based
[12] = Toxicity in iv dosed C57BL/6 mouse assessed as safe dose causing no animal death measured up to 30 to 180 mins during tail-flick test; type: organism-based; conditions: in vivo
[13] = tested on: Mus musculus; test: Antinociceptive activity in C57BL/6 mouse model of thermal-induced nociception assessed as inhibition of tail-flick response by measuring AUC of tail flick test at 100 mg/kg, iv measured up to 30 to 180 mins in presence of 10 mg/kg, sc opioid receptor antagonist naloxone by tail flick test; type: functional, organism-based

Structure (SMILES)	Activity [1]	EC50 [2] [µM]	other results
Cc1nc(C)c(-c2csc(Nc3ccccc3CC(F)(F)F)n2)s1	72.1%	8.5	–
CCc1ccccc1Nc1nc(C)cs1	inactive	> 30	–
C=CCN1CC[C@]23c4c5ccc(O)c4O[C@H]2C(=O)CC[C@@]3(O)[C@H]1C5	–	–	Activity [3]: inactive
CCc1ccccc1Nc1nc(-c2sc(N)nc2C)cs1	inactive	> 30	–
COc1cccc(Nc2nc(-c3sc(C)nc3C)cs2)c1C	27.2%	3.3	–
Cc1nc(C)c(-c2csc(Nc3c(C(C)C)cccc3C(C)C)n2)s1	inactive	> 30	–
COc1ccc(Nc2nc(-c3sc(C)nc3C)cs2)c(OC)c1	45.2%	19	–
CCc1ccccc1Nc1nc(-c2sc(C)nc2C)c(C)s1	inactive	> 30	–
Cc1nc(C)c(-c2csc(Nc3ccc(Br)cc3C)n2)s1	inactive	> 30	–
CCc1nc(C)c(-c2csc(Nc3ccccc3CC)n2)s1	32.5%	8.6	–
CCc1ccccc1Nc1nc(-c2nccs2)cs1	inactive	> 30	–
Cc1nc(C)c(-c2csc(Nc3ccc(Br)cc3C(F)(F)F)n2)s1	32.9%	13.8	–
Cc1nc(C)c(-c2csc(N)n2)s1	inactive	> 30	–
COc1ccc(Nc2nc(-c3sc(C)nc3C)cs2)c(C)c1	32.6%	14	–
Cc1ccc(Nc2nc(-c3sc(C)nc3C)cs2)c(C)c1	57.2%	8.8	–
CCc1ccccc1Nc1nc(-c2oc(C)nc2C)cs1	76.2%	3.3	–
Cc1cc(C)c(Nc2nc(-c3sc(C)nc3C)cs2)c(C)c1	52%	6.1	–
CCc1ccccc1Nc1nc(-c2sc(C)nc2C)cs1	–	–	Activity [4]: Non-Toxic; Activity [5]: inactive; Activity [6]: inactive; Activity [7]: Active; AUC [8]: 115 min.sec; Activity [9]: Dose-dependent effect; ED50 [10]: 17.5 mg/kg; AUC [11]: 160 min.sec; Activity [12]: 100 mg/kg; AUC [13]: 384 min.sec
CCc1ccccc1Nc1nc(-c2sc(NC(C)=O)nc2C)cs1	inactive	> 30	–
Cc1nc(C)c(-c2csc(Nc3cccc(F)c3C)n2)s1	57.9%	10.1	–
CCc1ccccc1Nc1nc(-c2sc(-c3ccccc3)nc2C)cs1	inactive	> 30	–
Cc1nc(C)c(-c2csc(Nc3c(C)cccc3F)n2)s1	32%	4.2	–
CCc1cc(Br)ccc1Nc1nc(-c2sc(C)nc2C)cs1	5.9%	4.9	–
CCc1cccc(C)c1Nc1nc(-c2sc(C)nc2C)cs1	38.2%	2.8	–
Cc1cc(C)c(Nc2nc(-c3oc(C)nc3C)cs2)c(C)c1	43.2%	3.9	–
CCc1ccccc1Nc1ncc(-c2sc(C)nc2C)o1	34.4%	13.3	–
